From US20240209028A1, “CNP COMPOUNDS” (priority 2022, published 2024)
Converted amounts (≈) assume the structure as drawn. Starred links: 1 amine or outer side, 2 acyl side, 3 side chain; linkers in the order of their positions; H or OH if unused. Positions of bridges follow the written chain, without caps; N, C: chain ends. Residues, ends and D or L forms follow the SMILES beside them. *: point of attachment. C18 diacid = O=C(O)CCCCCCCCCCCCCCCCC(=O)*; γGlu = O=C(O)[C@H](CCC(=O)[*:2])N[*:1]; AEEA = NCCOCCOCC(=O)O

Experiments:
[1] = CNP local tolerance study in LYD pigs (s.c. injection, histopathology); assay type: in vivo, domestic LYD pig
Description: The purpose of this study was to evaluate the local tissue reaction response to subcutaneous injection of CNP compounds in pigs.
Procedure: In domestic pigs, the injection site was subjected to histopathologic examination after subcutaneous dosing. Injections were placed mid-back between the shoulder and hip on both sides of the dorsal midline, and one or two days before injection sites of 2×2 cm were shaved and marked by permanent ink under light anaesthesia. Each injection consisted of 100 or 200 μl formulation with a concentration of approx. 4400 μM. CNP compound formulations were prepared according to the principles in General Methods of Preparation—Method G, and were either A) 8 mM sodium phosphate, 250 mM glycerol, pH 6.5, B) 5 mM sodium acetate, 250 mM glycerol, pH 4.0 or C) 5 mM sodium acetate, 240 mM propylene glycol, pH 4.0 and physiological saline was included as negative control.
On Day 1 the pigs were lightly anaesthetised. An insulin pen (NovoPen 4) and insulin needle (NovoTwist 32G/5 mm) were used for accurate deposition of the CNP formulations in the subcutaneous fat tissue with the needle perpendicular to the skin. On Day 5 (4 days post injection) or 6 (5 days post injection), the pigs were euthanised, and the injection sites were removed and fixed in 4% phosphate buffered neutral formaldehyde in sealed plastic containers. The tissue blocks were prefixed for 2-4 hours in 10% buffered formalin, cut into 2 mm thick slabs with a multi knife, examined for macroscopic changes and finally fixed overnight in cassettes. Two slabs of tissue were selected for light microscopic evaluation where the tissue reaction was maximal or alternatively in the central part of the injection site. Three to four 2-4 μm sections were cut from three levels at 100 μm distance, stained with haematoxylin and eosin (H&E) and evaluated in a light microscope. Histopathological changes were graded on a 5-level scale ((Minimal (Min), Mild (Mil), Moderate (Mod), Marked (Mar) and Severe (Sev)). The studies are summarised in Table 18.
Results: The results are summarised in Table 19. * Necrosis was used as a marker for local subcutaneous reactions; **NAD: No Abnormalities Detected

[2] = target: T1, human natriuretic peptide receptor 2 (hNPR2) (Homo sapiens, UniProt P20594); assay: In vitro hNPR2 activity assay (cGMP GloSensor reporter, HEK293); assay type: cell-based; conditions: for hNPR2 0% HSA. [EC50% rel CNP]: potency relative to CNP22 (0065)
T1 construct: expressed in transfected cells; host or cells: HEK293 (ATCC CRL-1573), clone 35, co-transfected with pGloSensor-42F
T1 sequence (P20594 23-1047): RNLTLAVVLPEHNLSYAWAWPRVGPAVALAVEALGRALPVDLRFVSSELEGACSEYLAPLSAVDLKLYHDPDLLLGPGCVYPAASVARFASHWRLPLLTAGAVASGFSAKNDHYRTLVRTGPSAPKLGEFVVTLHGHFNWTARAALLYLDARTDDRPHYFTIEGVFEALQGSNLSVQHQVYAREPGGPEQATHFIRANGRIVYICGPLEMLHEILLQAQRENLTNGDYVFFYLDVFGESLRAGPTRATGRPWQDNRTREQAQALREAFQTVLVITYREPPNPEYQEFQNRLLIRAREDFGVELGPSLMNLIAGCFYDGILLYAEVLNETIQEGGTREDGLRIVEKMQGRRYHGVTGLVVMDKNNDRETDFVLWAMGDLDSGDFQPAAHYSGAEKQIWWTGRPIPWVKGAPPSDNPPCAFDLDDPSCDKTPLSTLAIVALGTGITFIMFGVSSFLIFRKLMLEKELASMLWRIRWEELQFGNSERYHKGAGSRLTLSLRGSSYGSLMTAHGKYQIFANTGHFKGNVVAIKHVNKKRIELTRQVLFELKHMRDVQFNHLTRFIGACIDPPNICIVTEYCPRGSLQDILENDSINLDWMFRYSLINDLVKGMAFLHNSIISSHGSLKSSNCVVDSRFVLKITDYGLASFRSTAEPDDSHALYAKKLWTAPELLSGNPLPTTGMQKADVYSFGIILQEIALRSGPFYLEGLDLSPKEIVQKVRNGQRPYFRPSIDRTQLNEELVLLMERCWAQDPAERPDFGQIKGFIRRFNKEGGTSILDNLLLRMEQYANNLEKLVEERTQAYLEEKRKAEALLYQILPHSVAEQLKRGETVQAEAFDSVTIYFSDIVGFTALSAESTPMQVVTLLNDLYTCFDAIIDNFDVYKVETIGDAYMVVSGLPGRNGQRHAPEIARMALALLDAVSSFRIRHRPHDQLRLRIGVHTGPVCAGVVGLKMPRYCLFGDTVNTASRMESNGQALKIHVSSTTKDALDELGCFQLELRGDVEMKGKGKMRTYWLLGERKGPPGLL
How it was run: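 Potency is the EC50 from a four-parameter logistic fit, also expressed relative to the in-plate CNP22 control (×100), with at least two replicates. Compounds (ten concentrations, […], HSA-free diluent with 1% OVA, 0.01% Tween20) were incubated 30 min at 37 °C on HEK293 cells co-expressing hNPR2 and a GloSensor cGMP luciferase. Luminescence detected with Bright-Glo.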

[3] = Solubility of CNP compounds at pH 4.0 and pH 6.5; assay type: physicochemical; conditions: 8 mM sodium phosphate, 23 mg/mL glycerol, pH 6.5, room temperature; read-out: Solubility at pH 6.5
Method: In order to assess the suitability of CNP compounds for a soluble liquid formulation, the solubility of CNP compounds in pharmaceutically relevant buffers were measured. Solubility at two different pH-levels (pH 4.0 and pH 6.5) was examined as pH is expected to affect solubility.
Preparation of pH 4.0 samples: The pH 4.0 samples of the CNP compounds were prepared by mixing freeze dried peptide with a pH 4.0 5 mM sodium acetate, 250 mM glycerol buffer at room temperature to a nominal concentration of at least 4000-5000 nmol/mL. The pH of the samples was measured and adjusted to pH 4.0 and the samples were allowed to equilibrate at room temperature until next day if not fully dissolved.
Preparation of pH 6.5 samples: The pH 6.5 samples of the CNP compounds were prepared by dissolving the freeze dried peptide in water. While stirring, a part of the peptide solution was transferred to a buffer consisting of 41 mM sodium phosphate and 118 mg/mL glycerol, pH 7.5-8.0, followed by addition of diluted sodium hydroxide followed by another part of the peptide solution and further addition of diluted sodium hydroxide. This procedure was repeated until all of the peptide solution had been added where a nominal concentration of at least 4000-5000 nmol/mL had been reached and the buffer composition was 8 mM sodium phosphate, 23 mg/mL glycerol. The pH of the samples were measured and adjusted to pH 6.5 and the samples were allowed to equilibrate at room temperature until next day if not fully dissolved.
Procedure: Samples at pH 4.0 were prepared as described above and the compound concentration in the supernatant was determined using CAD (Method F, CAD02).
Samples at pH 6.5 were prepared as described above and peptide concentration in the supernatant was determined by CAD (Method F, CAD02).

SMILES | Number of injections by severity of necrosis: NAD ([1]; LYD pig, s.c., approx. 4400 μM, 4 or 5 days after injection) | EC50 ([2]; 0% HSA, HEK293-hNPR2/GloSensor cells) | hNPR2 0% HSA. [EC50% rel CNP] [2] | injection site reactions ([1]; subcutaneous injections in the pig) | solubility [3]
CC[C@H](C)[C@@H]1NC(=O)[C@H](CCCNC(=N)N)NC(=O)[C@H](CC(=O)O)NC(=O)[C@H](CC(C)C)NC(=O)[C@H](CCCCN)NC(=O)[C@H](CC(C)C)NC(=O)CNC(=O)[C@H](Cc2ccccc2)NC(=O)[C@@H](NC(=O)CNC(=O)[C@H](CCCCN)NC(=O)[C@H](CO)NC(=O)[C@H](CC(C)C)NC(=O)CNC(=O)[C@H](CCCCN)NC(=O)[C@H](CCCCN)NC(=O)[C@H](CC(N)=O)NC(=O)[C@H](C)NC(=O)CNC(=O)[C@H](CCCCN)NC(=O)[C@H](Cc2ccc(O)cc2)NC(=O)[C@H](CCCCN)NC(=O)[C@H](CCCNC(=N)N)NC(=O)[C@H](C)NC(=O)[C@H](CC(N)=O)NC(=O)[C@@H]2CCCN2C(=O)[C@H](Cc2c[nH]cn2)NC(=O)[C@H](CCC(=O)O)NC(=O)[C@H](CCC(N)=O)NC(=O)CNC(=O)[C@@H]2CCCN2)CSSC[C@@H](C(=O)O)NC(=O)CNC(=O)[C@H](CC(C)C)NC(=O)CNC(=O)[C@H](CO)NC(=O)[C@H](CCSC)NC(=O)[C@H](CO)NC(=O)CNC1=O [Compound 0106] | 4 | – | – | – | –
CC[C@H](C)[C@@H]1NC(=O)[C@H](CCCNC(=N)N)NC(=O)[C@H](CC(=O)O)NC(=O)[C@H](CC(C)C)NC(=O)[C@H](CCCCN)NC(=O)[C@H](CC(C)C)NC(=O)CNC(=O)[C@H](Cc2ccccc2)NC(=O)[C@@H](NC(=O)CNC(=O)[C@H](CCCCN)NC(=O)[C@H](CO)NC(=O)[C@H](CC(C)C)NC(=O)CNC(=O)[C@H](CCCCN)NC(=O)[C@H](CCCCN)NC(=O)[C@H](CC(N)=O)NC(=O)[C@H](C)NC(=O)CNC(=O)[C@H](CCCCN)NC(=O)[C@H](Cc2ccc(O)cc2)NC(=O)[C@H](CCCCN)NC(=O)[C@H](CCCNC(=N)N)NC(=O)[C@H](C)NC(=O)[C@H](CC(N)=O)NC(=O)[C@@H]2CCCN2C(=O)[C@H](Cc2c[nH]cn2)NC(=O)[C@H](CCC(=O)O)NC(=O)[C@H](CCC(N)=O)NC(=O)CNC(=O)[C@@H]2CCCN2)CSSC[C@@H](C(=O)O)NC(=O)CNC(=O)[C@H](CC(C)C)NC(=O)CNC(=O)[C@H](CO)NC(=O)[C@H](CCSC)NC(=O)[C@H](CO)NC(=O)CNC1=O [compound 0106] | – | 0.18 nM | 201.1% | no observable injection site reactions | –
CC[C@H](C)[C@@H]1NC(=O)[C@H](CCCNC(=N)N)NC(=O)[C@H](CC(=O)O)NC(=O)[C@H](CC(C)C)NC(=O)[C@@H]2CCCN2C(=O)[C@H](CC(C)C)NC(=O)CNC(=O)[C@H](Cc2ccccc2)NC(=O)[C@@H](NC(=O)CNC(=O)[C@H](CO)NC(=O)[C@H](CO)NC(=O)[C@@H](NC(=O)CNC(=O)[C@@H](NC(=O)[C@H](CCCCN)NC(=O)[C@H](CCC(N)=O)NC(=O)[C@H](C)NC(=O)CNC(=O)[C@H](CCCCN)NC(=O)[C@H](Cc2ccc(O)cc2)NC(=O)[C@H](CCCCN)NC(=O)[C@H](CCCNC(=N)N)NC(=O)[C@H](C)NC(=O)COCCOCCNC(=O)COCCOCCNC(=O)CC[C@H](NC(=O)CC[C@H](NC(=O)CC[C@H](NC(=O)CCCCCCCCCCCCCCCCC(=O)O)C(=O)O)C(=O)O)C(=O)O)[C@@H](C)O)C(C)C)CSSC[C@@H](C(=O)O)NC(=O)CNC(=O)[C@H](CC(C)C)NC(=O)CNC(=O)[C@H](CO)NC(=O)[C@H](CC(C)C)NC(=O)[C@H](CO)NC(=O)CNC1=O [compound 1421] ({C18 diacid-γGlu-γGlu-γGlu-AEEA-AEEA}-ARKYKGAQKTGVSSGCFGLPLDRIGSLSGLGC-OH; disulfide 16-32) | – | – | 50.0% | – | 857 µM (≈ 3600 µg/mL)
